Paper PMC3585277, “The C-Terminal Region Mesd Peptide Mimics Full-Length Mesd and Acts as an Inhibitor of Wnt/β-Catenin Signaling in Cancer Cells” (PLoS ONE, 2013)

How the values were obtained:
HS578T cells [1] = assay: Cell viability, Cell Titer Glo Assay, HS578T cells; format: cell-based, human
Protocol: (§1) Cell viability was measured in 96-well plates by the Cell Titer Glo Assay (Promega), which is a luminescent assay that is an indicator of live cells as a function of metabolic activity and ATP content.

Wnt/β-catenin signaling [2] = assay: Super8XTOPFlash luciferase reporter assay, HEK293 cells (Figure S1, S2); format: cell-based, human; settings: 24 h, peptide 8 µM in Figure S1
Protocol: (§2) Cells were plated into 24-well plates. After overnight culture, the cells were transiently transfected with the TOPFlash or Super8XTOPFlash luciferase construct, β-galactosidase-expressing vector, and pcDNA3.1C-Myc-hLRP5, pCS-Myc-hLRP6 or control vector. After 24 h incubation, cells were treated with Mesd, Mesd peptide, Rspo1 and Wnt3A CM. Cells were then lysed 24 h later and both luciferase and β-galactosidase activities were determined. The luciferase activity was normalized to the β-galactosidase activity.
Supplementary file pone.0058102.s001.tif: Figure S1 Human Mesd C-terminal region peptide blocks Wnt/β-catenin signaling induced by LRP6, Wnt3A and Rspo1 in HEK293 cells. […] The luciferase activity was then measured 24 h later with normalization to the activity of the β-galactosidase. […]
Supplementary file pone.0058102.s002.tif: Figure S2 Mesd blocks Wnt1- or Wnt10b-induced Wnt/β-catenin signaling in HEK293 cells. […] The luciferase activity was then measured 24 h later with normalization to the activity of the β-galactosidase. […] The levels of cytosolic free β-catenin, and total cellular Wnt1, Wnt10b, β-catenin, LRP6, Axin2, cyclin D1 and phosphorylated LRP6 were then analyzed by Western blotting. […]

Wnt/β-catenin signaling [3] = assay: Super8XTOPFlash luciferase reporter assay, PC-3 cells; format: cell-based, human; settings: 24 h treatment
Protocol: as §2

Wnt/β-catenin signaling [4] = assay: Super8XTOPFlash luciferase reporter assay, HS578T cells; format: cell-based, human; settings: 24 h treatment
Protocol: as §2

Wnt/β-catenin signaling [5] = assay: Western blot / GST-E-cadherin binding assay of Wnt/β-catenin signaling markers, PC-3 cells; format: cell-based, human
Protocol: (§3) Cells in 6-well plates were lysed in 0.5 ml of lysis buffer (phosphate-buffered saline containing 1% Triton X-100 and 1 mM PMSF) at 4°C for 10 min. Equal quantities of protein were subjected to SDS-PAGE under reducing conditions. Following transfer to immobilon-P transfer membrane, successive incubations with anti-HA, anti-Wnt10b, anti-β-catenin, anti-OPG, anti-phosphorylated-LRP6, anti-LRP6, anti-Axin2, anti-Cyclin D1 or anti-actin, and horseradish peroxidase-conjugated secondary antibody were carried out for 60–120 min at room temperature. The immunoreactive proteins were then detected using the ECL system. Films showing immunoreactive bands were scanned by Kodak Digital Science DC120 Zoom Digital Camera.
(§4) The GST-E-cadherin binding assay was carried out exactly as previously described (9). Uncomplexed cytosolic free β-catenin present in 100 µg of total cell lysate was subjected to SDS-PAGE and detected using the monoclonal antibody to β-catenin.

Wnt/β-catenin signaling [6] = assay: Western blot / GST-E-cadherin binding assay of Wnt/β-catenin signaling markers, HS578T cells; format: cell-based, human; settings: 24 h treatment
Protocol: as §3, §4

PC-3 cells [7] = assay: Cell proliferation assay (trypan blue exclusion), PC-3 cells; format: cell-based, human; settings: PC-3, RPMI-1640 2% FBS, 10 days; mMesd 2 µM, hMesd (160–197) 4 µM, control peptide 4 µM; n = 3
Protocol: (§5) Cells were seeded into 6-well plates at a density of 10000 cells/well. RPMI-1640 or DMEM medium containing 2% FBS was used as assay media. After 16 h incubation, the cells were treated with Mesd or its peptide for 10 days. Media were changed every other day. At the end of the experiment, cells were harvested and counted using the trypan blue exclusion assay.

HS578T cells [8] = assay: Cell proliferation assay (trypan blue exclusion), HS578T cells; format: cell-based, human; settings: DMEM 2% FBS, 10 days, mMesd 2 µM, hMesd (160–197) 4 µM, control peptide 4 µM, n = 3
Protocol: as §5

PC-3 cells [9] = assay: Cell viability, Cell Titer Glo Assay, PC-3 cells; format: cell-based, human; settings: Mesd 2 µM or hMesd (160–197) 2 µM with Adriamycin 0.5 µM, 2 days after pre-treatment
Protocol: as §1

LRP6 = assay: 125I-Mesd ligand binding assay, LRP6-transduced HT1080 cells; parameters: species or system human; settings: for block of Mesd protein binding to LRP6 at the cell surface / concentration at which inhibitory ability on Mesd binding was displayed: 125I-Mesd 5 nM, 4 h at 4°C; for block of Mesd protein binding to LRP6 at the cell surface: LRP6-transduced HT1080 cells; for concentration at which inhibitory ability on Mesd binding was displayed / inhibitory concentration relative to that required for mMesd (155–191): LRP6-expressing cells
Protocol: (§6) Ligand binding assay was carried out exactly as previously described. Cells (2×10^5) were seeded into 12-well dishes 1 day prior to assay. Ligand-binding buffer (minimal Eagle's medium containing 0.6% BSA with a different concentration of radioligand, 0.6 ml/well) was added to cell monolayers, in the absence or the presence of unlabeled Mesd or its peptide, followed by incubation for 4 h at 4°C. Thereafter, overlying buffer containing unbound ligand was removed, and cell monolayers were washed and lysed in low-SDS lysis buffer (62.5 mM Tris-HCl pH 6.8, 0.2% SDS, 10% v/glycerol) and counted.

LRP5 = assay: 125I-Mesd ligand binding assay, LRP5-transfected ldl-7 cells; settings: for block of Mesd protein binding to LRP5 at the cell surface / concentration at which inhibitory ability on Mesd binding was displayed: 4 h at 4°C; for concentration at which inhibitory ability on Mesd binding was displayed / inhibitory concentration relative to that required for mMesd (155–191): LRP5-expressing cells
Protocol: as §6

Wnt/β-catenin signaling [10] = assay: TOPFlash luciferase reporter assay, LRP5-transfected HEK293 cells; format: cell-based, human; settings: Wnt3A CM 5%, Rspo1 40 ng/ml, mMesd 2 µM, peptide at indicated concentrations, 24 h, normalized to β-galactosidase
Protocol: as §2

Wnt/β-catenin signaling [11] = assay: TOPFlash luciferase reporter assay, LRP6-transfected HEK293 cells; format: cell-based, human; settings: Wnt3A CM 5%, Rspo1 40 ng/ml, mMesd 2 µM, peptide at indicated concentrations, 24 h, normalized to β-galactosidase
Protocol: as §2

LRP6 phosphorylation = assay: Western blot of phosphorylated LRP6 in C2C12 cells; format: cell-based, mouse; settings: C2C12, Wnt3A CM 5%, 6 h; mMesd 0.5 µM, peptide at indicated concentrations
Protocol: as §3

OPG expression = assay: Western blot of OPG expression in C2C12 cells; format: cell-based, mouse; settings: 48 h, mMesd 0.5 µM
Protocol: as §3

[12] = peptides at indicated concentrations, Figure 1C
[13] = 125I-Mesd 5 nM, peptides at indicated concentrations, LRP5-transfected ldl-7 cells, Figure 1C

`COc1cccc2c1C(=O)c1c(O)c3c(c(O)c1C2=O)C[C@@](O)(C(=O)CO)C[C@@H]3O[C@H]1C[C@H](N)[C@H](O)[C@H](C)O1` [Adriamycin, reference compound] was tested. Which “inhibition of cell viability” value (HS578T cells [1]; single agent: Mesd protein 2 µM or Adriamycin 0.5 µM, Mesd 4 days pre-treatment, then 2 days, n = 4) did it give?
The value was 69%.

“KGGGSKEKNKTKQDKGKKKKEGDLKSRSSKEENRAGNK [hMesd (160–197), human Mesd C-terminal region peptide, corresponding to mMesd (155–191)]” was tested. Which “Wnt/β-catenin signaling induced by LRP6, Wnt3A, Rspo1, Wnt1 and Wnt10b” value (Wnt/β-catenin signaling [2]) did it give?
The value was “displayed inhibitory effects”.

And the “Wnt reporter luciferase activity” value (Wnt/β-catenin signaling [3]; PC-3, endogenous signaling, indicated concentrations)?
Its value is “significantly repressed”.

What about the “Wnt reporter luciferase activity induced by Wnt1” value (Wnt/β-catenin signaling [3]; PC-3 transfected with Wnt1 plasmid) of the same compound?
The value was “significantly repress”.

What about the “Wnt reporter luciferase activity induced by Wnt1” value (Wnt/β-catenin signaling [4]; HS578T transfected with Wnt1 plasmid) of the same compound?
Its value is “significantly repress”.

And the “Wnt reporter luciferase activity” value (Wnt/β-catenin signaling [4]; HS578T, endogenous signaling, indicated concentrations)?
The value was “significantly repressed”.

What about the “levels of cytosolic free β-catenin, LRP6 phosphorylation, Axin2 and cyclin D1” value (“levels of cytosolic free β-catenin” below) (Wnt/β-catenin signaling [5]; PC-3, 24 h treatment) of the same compound?
Its value is “greatly decreased”.

And the “levels of cytosolic free β-catenin” value (Wnt/β-catenin signaling [5]; Wnt1-expressing PC-3, 24 h treatment)?
Its value is “greatly decreased”.

What about the “levels of cytosolic free β-catenin” value (Wnt/β-catenin signaling [6]; HS578T) of the same compound?
The value was “greatly decreased”.

What about the “levels of cytosolic free β-catenin” value (Wnt/β-catenin signaling [6]; Wnt1-expressing HS578T) of the same compound?
The value was “greatly decreased”.

And the cell proliferation (PC-3 cells [7])?
Its cell proliferation is “displayed inhibitory effect”.

And the cell proliferation (HS578T cells [8])?
The cell proliferation was “displayed inhibitory effect”.

And the Adriamycin-induced cytotoxicity (HS578T cells [1]; Mesd 2 µM or hMesd (160–197) 2 µM with Adriamycin 0.5 µM, 2 days after pre-treatment)?
Its Adriamycin-induced cytotoxicity is “potentiate”.

And the Adriamycin-induced cytotoxicity (PC-3 cells [9])?
The Adriamycin-induced cytotoxicity was “potentiate”.

With “mMesd (155–164): Mesd peptide based on the mouse Mesd C-terminal region sequence” as the compound, how does the “block of Mesd protein binding to LRP6 at the cell surface” value (“block of Mesd protein binding to LRP6” below) (LRP6; [12]) read?
Its value is “unable to block”.

And the “block of Mesd protein binding to LRP5 at the cell surface” value (“block of Mesd protein binding to LRP5” for short) (LRP5; [13])?
Its value is “unable to block”.

With “mMesd (155–173): Mesd peptide based on the mouse Mesd C-terminal region sequence (GSYAWEIKDFLVSQDRCAE; UniProt Q9ERE7 155-173, looked up, fragment)” as the compound, how does the “block of Mesd protein binding to LRP6” value (LRP6; [12]) read?
The value was “inhibition”.

What about the “block of Mesd protein binding to LRP5” value (LRP5; [13]) of the same compound?
Its value is “inhibition”.

“mMesd (155–191): shorter mouse Mesd C-terminal region peptide lacking 9 conserved terminal residues of mMesd (150–195) (GSYAWEIKDFLVSQDRCAEVTLEGQMYPGKGGGSKEK; UniProt Q9ERE7 155-191, looked up, fragment)” was tested. Which “block of Mesd protein binding to LRP6” value (LRP6; 500 nM peptide, Figure 1B, triple determinations) did it give?
Its value is “blocked”.

What about the “block of Mesd protein binding to LRP5” value (LRP5; 125I-Mesd binding assay with LRP5-expressing cells) of the same compound?
Its value is “blocked”.

What about the “TOPFlash activity induced by LRP5, LRP5 plus Wnt3A, LRP5 plus Rspo1” value (Wnt/β-catenin signaling [10]) of the same compound?
Its value is “blocked”.

What about the “TOPFlash activity induced by LRP6, LRP6 plus Wnt3A, LRP6 plus Rspo1” value (Wnt/β-catenin signaling [11]) of the same compound?
Its value is “blocked”.

And the “Wnt3A-induced endogenous LRP6 phosphorylation” value (LRP6 phosphorylation)?
Its value is “able to suppress”.

What about the “OPG expression induced by Rspo1 plus Wnt3A” value (OPG expression; C2C12, Rspo1 20 ng/ml, Wnt3A CM 2%, mMesd (155–191) 2 µM) of the same compound?
The value was “repressed”.

And the “Wnt3A-induced OPG expression” value (OPG expression; C2C12, Wnt3A CM 5%, peptide at indicated concentrations)?
Its value is “able to suppress”.

With “mMesd (160–169): Mesd peptide based on the mouse Mesd C-terminal region sequence (EIKDFLVSQD; UniProt Q9ERE7 160-169, looked up, fragment)” as the compound, how does the “concentration at which inhibitory ability on Mesd binding was displayed” value (LRP6) read?
The value was 50 µM.

What about the “inhibitory concentration relative to that required for mMesd (155–191)” value (LRP6) of the same compound?
Its value is 100 times.

And the “concentration at which inhibitory ability on Mesd binding was displayed” value (LRP5; 125I-Mesd 5 nM)?
Its value is 50 µM.

What about the “inhibitory concentration relative to that required for mMesd (155–191)” value (LRP5) of the same compound?
Its value is 100 times.

Which results are given for “mMesd (165–182): Mesd peptide based on the mouse Mesd C-terminal region sequence (LVSQDRCAEVTLEGQMYP; UniProt Q9ERE7 165-182, looked up, fragment)”?
block of Mesd protein binding to LRP6 at the cell surface (LRP6; [12]): unable to block; block of Mesd protein binding to LRP5 at the cell surface (LRP5; [13]): unable to block

Which results are given for “mMesd (174–191): Mesd peptide based on the mouse Mesd C-terminal region sequence (VTLEGQMYPGKGGGSKEK; UniProt Q9ERE7 174-191, looked up, fragment)”?
block of Mesd protein binding to LRP6 at the cell surface (LRP6; [12]): inhibition; block of Mesd protein binding to LRP5 at the cell surface (LRP5; [13]): inhibition

With “mMesd (183–191): Mesd peptide based on the mouse Mesd C-terminal region sequence (GKGGGSKEK; UniProt Q9ERE7 183-191, looked up, fragment)” as the compound, how does the “concentration at which inhibitory ability on Mesd binding was displayed” value (LRP6) read?
Its value is 50 µM.

And the “inhibitory concentration relative to that required for mMesd (155–191)” value (LRP6)?
Its value is 100 times.

And the “concentration at which inhibitory ability on Mesd binding was displayed” value (LRP5; 125I-Mesd 5 nM)?
The value was 50 µM.

What about the “inhibitory concentration relative to that required for mMesd (155–191)” value (LRP5) of the same compound?
Its value is 100 times.
